According to PMC3532304, “Piperidinols That Show Anti-Tubercular Activity as Inhibitors of Arylamine N-Acetyltransferase: An Essential Enzyme for Mycobacterial Survival Inside Macrophages” (PLoS ONE, 2012):
Converted amounts (≈) assume the structure as drawn. “And” between values parts separate entries of the source, which are not always exact repeats. Identical values can stand only once. Like-named read-outs stand apart in the source and are kept apart here.

Experiments:
MMNAT [1] = biological target: T1, MMNAT (Mycobacterium marinum, UniProt B2HIZ6); experiment: ESI-MS analysis of covalent enzyme-inhibitor adducts; assay type: binding, M. marinum; conditions: enzyme-to-inhibitor ratio 1∶1; for Δm of enzyme-inhibitor adduct (MMNAT): 24°C, 30–60 min; for Molar ratio (inhibitor/protein) (MMNAT): proposed number of inhibition species bound per protein molecule
Protocol: ESI-MS was performed as described previously. A sample of 2.5 mg/mL (80 µM) MMNAT was analyzed on a Micromass LCT mass spectrometer. The samples were pretreated with DMSO or 0.08–1.2 mM inhibitor dissolved in DMSO to a final percentage of 5% (v/v) DMSO and incubated for 30–60 min before analysis. ESI-MS analysis was performed in positive ion mode after denaturation in 50% v/v acetonitrile in water with an accuracy of ±0.1%. The sample was run over a desalting column prior to MS analysis.

TBNAT [2] = biological target: T2, TBNAT (Mycobacterium tuberculosis, UniProt P9WJI5); experiment: as above; assay type: binding, M. tuberculosis
T2 construct: made in house

NAT = experiment: Inhibition of NAT activity by PVK; assay type: biochemical; conditions: within 10 minutes, at less than 1 µM
TBNAT [3] = biological target: T2, TBNAT; experiment: NAT-inhibition assay (Ac-CoA hydrolysis with hydralazine, Ellman's reagent); assay type: biochemical, M. tuberculosis; conditions: for inhibition at 50 µM: read-out: TBNAT % Inhibition; for IC50: mean ± S.D.
Protocol: (§1) An assay for measuring the formation of CoA was used to determine the activity of the enzyme in the presence of potential inhibitors. All the tested compounds were dissolved in dimethylsulphoxide (DMSO) and all reactions were carried out in the presence of 5% (v/v) DMSO. The enzyme (100–150 ng) was mixed with the inhibitors 1–5 (5 µL at a final concentration of 0–250 µM) and incubated for 15 min at 24°C prior to starting the reaction by adding 15 µL hydralazine and 12 µL Ac-CoA at final concentrations of 150 µM and 120 µM respectively, in a final total volume of 100 µL of 20 mM Tris-HCl pH 8. The assay was performed as an end-point read out measurement by stopping the reaction after 10 min at 24°C using 25 µL Ellman's reagent (5 mM 5,5′-dithiobis-(2-nitrobenzoate) solution in 6.4 M guanidine-HCl and 100 mM Tris-HCl, pH 7.3). The absorbance was measured at a wavelength of 405 nm within 2 min (Tecan Sunrise Plate Reader). The assays were repeated using a 10-fold enzyme concentration to exclude promiscuous non-specific inhibitors. The activity of the enzyme in the presence of 5% (v/v) DMSO was measured as a control. Inhibition values were determined as the ratio of the enzyme activity (expressed as the rate of CoA formation per microgram protein (µM/min.µg)) with the requisite compound, to the activity of the control without inhibitor. IC50 values were determined from the inhibition curves which were obtained by non-linear fitting of the % inhibition and the inhibitor concentration (µM) using the Log(inhibitor) vs. response module of GraphPad Prism 5.0.

M. tuberculosis = system: M. tuberculosis; set-up: method as in PMID 13402115; conditions: cited from earlier work
MMNAT [4] = biological target: T1, MMNAT; experiment: Time-dependent inhibition assay (Kitz and Wilson model); assay type: biochemical, M. marinum; conditions: 24°C
Protocol: The time course of the inhibition of NAT by the piperidinols was evaluated according to the Kitz and Wilson model. Irreversible inhibition, progressive with time, was measured for the piperidinol inhibitors (1–5) by the protocol described in Figure S2, and the values of the apparent first order constant (kobs) were determined (Table 1). Dilution rather than dialysis was used in this protocol due to the likely loss of activity upon dialysis (Figure 3). […] Examples of the curves obtained for enzyme activity against incubation time upon inhibition of MMNAT and TBNAT by the piperidinols are shown in Figure 4.
For the determination of the time dependence of interaction between enzymes and inhibitors, the inhibitor was diluted to less than 1% concentration. Incubation mixtures (20 µL) contained 0.06 mM MMNAT or TBNAT in 20 mM Tris-HCl, pH 8 and 5% (v/v) DMSO and variable concentrations of the inhibitors (0–50 µM) were prepared using the protocol described in Figure S1. Aliquots of 1 µL were removed from the reaction mixture at different time points (incubation-time) and diluted to 100 µL using the assay buffer containing HLZ and Ac-CoA to the final concentrations of 150 µM and 120 µM, respectively. The rate of Ac-CoA hydrolysis was measured over a three-minute time period. The reaction was stopped with 25 µL Ellman's reagent in 6.4 M guanidine and the absorbance was measured at a wavelength of 405 nm. The residual activity was measured as a percentage of a control prepared as described in Figure S1 and plotted against the incubation-time. The data were fitted using the Semilog line (X is linear, Y is Log) module of GraphPad Prism 5.0. The slope of each line is equivalent to (−kobs/2.303) at each inhibitor concentration.The controls in which no enzyme was present using CoA and Ellman's reagent gave the same results whether compound 1 was present or not.

MMNAT [5] = biological target: T1, MMNAT; experiment: NAT-inhibition assay (Ac-CoA hydrolysis with hydralazine, Ellman's reagent); assay type: biochemical, M. marinum; conditions: for inhibition at 50 µM: read-out: MMNAT % Inhibition; for IC50: mean ± S.D.
Protocol: as §1

TBNAT [6] = biological target: T2, TBNAT; experiment: Reversibility of inhibition by dialysis; assay type: biochemical, M. tuberculosis; conditions: 15-fold molar excess, 1 h at 24°C, dialysis 16 h at 4°C
Protocol: (§2) Figure 3 Reversibility of the inhibition of TBNAT and MMNAT by compound 1. Each enzyme (MMNAT, TBNAT, 0.07 mM, 50 µL) was preincubated either alone or with 15-fold molar excess 1 at 24°C for 1 h. Each sample was then dialysed against 1 L fresh assay buffer (20 mM Tris-HCl pH 8) at 4°C for 16 h. The enzyme activities of the samples were measured before dialysis and then measured after dialysis by measuring the rate of Ac-CoA hydrolysis in the presence of HLZ as described in Methods. The mean ± S.D. of three measurements of the activity is shown. Loss of enzyme activity upon dialysis is likely to be due to the oxidation of the active site sulfhydryl group, especially since dialysis was performed in the absence of dithiothreitol.
(§3) For the reversibility studies, excess inhibitor was […] by dialysis. Each enzyme (0.07 mM MMNAT or TBNAT in 20 mM Tris-HCl pH 8 and 5% (v/v) DMSO) was preincubated either alone or with 15-fold molar excess of compound 1 in a final volume of 50 µL at 24°C for 1 h. Each sample was then dialysed against 1 L fresh assay buffer (20 mM Tris-HCl pH 8) at 4°C for 16 h. The enzyme activities of the samples were measured before dialysis and then measured after dialysis by measuring the rate of Ac-CoA (120 µM) hydrolysis in the presence of 150 µM HLZ.

MMNAT [7] = biological target: T1, MMNAT; experiment: Reversibility of inhibition by dialysis; assay type: biochemical, M. marinum; conditions: 15-fold molar excess, 1 h at 24°C, dialysis 16 h at 4°C
Protocol: as §2, §3

M. tuberculosis H37Rv = experiment: Mycobacterial growth inhibition in vitro (spot culture on solid medium); assay type: cell-based; conditions: for MIC: Mycobacterium tuberculosis, H37RV, 336 h, read-out: MIC M. tuberculosis; for MIC M. tuberculosis: H37Rv, solid 7H10-OADC medium, no growth after 2 weeks
hamster NAT2 (shNAT2) = biological target: T3, hamster NAT2 (shNAT2) (Mesocricetus auratus, UniProt P50293); experiment: Specificity panel of recombinant NAT enzymes (Ac-CoA hydrolysis with 5ASA); assay type: biochemical; conditions: 30 µM
T3 construct: made in house
T3 sequence (P50293 1-290): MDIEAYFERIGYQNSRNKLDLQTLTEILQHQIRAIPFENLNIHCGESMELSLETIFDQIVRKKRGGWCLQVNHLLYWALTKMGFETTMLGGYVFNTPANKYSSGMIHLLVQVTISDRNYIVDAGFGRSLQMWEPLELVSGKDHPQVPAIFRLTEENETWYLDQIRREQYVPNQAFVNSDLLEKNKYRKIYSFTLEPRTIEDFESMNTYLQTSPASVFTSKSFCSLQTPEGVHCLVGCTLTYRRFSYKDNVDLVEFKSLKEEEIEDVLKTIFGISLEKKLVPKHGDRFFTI
Protocol: (§4) Figure 2 Specificity of compound 1 for prokaryotic NAT enzymes. Compound 1 was tested at 30 µM against pure recombinant NAT enzymes from M. smegmatis (MSNAT), P. aeruginosa (PANAT), S. typhimurium (STNAT), MMNAT and TBNAT, and also against two eukaryotic enzymes, hamster NAT2 (shNAT2) and human NAT1. The results are shown as the mean ± S.D. of triplicate determinations of the percentage inhibition of hydrolysis of Ac-CoA in the presence of 5-aminosalicylic acid (5ASA) and against TBNAT using hydralazine as a substrate. The inhibition is represented as a percentage compared to an uninhibited control from triplicate measurements. The structure of compound 1 is shown and the piperidinol nucleus is highlighted by the shaded area.

human NAT1 = biological target: T4, human NAT1 (Homo sapiens, UniProt P18440); experiment: as above; assay type: biochemical; conditions: 30 µM
T4 construct: made in house
T4 sequence (P18440 1-290): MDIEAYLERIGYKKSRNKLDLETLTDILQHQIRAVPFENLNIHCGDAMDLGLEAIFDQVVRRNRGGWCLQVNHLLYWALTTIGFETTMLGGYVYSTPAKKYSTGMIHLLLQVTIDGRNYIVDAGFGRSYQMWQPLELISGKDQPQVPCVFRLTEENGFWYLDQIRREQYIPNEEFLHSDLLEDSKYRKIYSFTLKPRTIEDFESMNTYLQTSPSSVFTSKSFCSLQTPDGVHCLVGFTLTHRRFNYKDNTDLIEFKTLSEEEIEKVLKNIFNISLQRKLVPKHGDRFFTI
Protocol: as §4

M. bovis BCG = experiment: microbe, parasite or virus in culture; assay type: cell-based; conditions: for MIC: Mycobacterium tuberculosis variant bovis BCG, BCG, 336 h, read-out: MIC M. bovis BCG; for MIC M. bovis BCG: solid 7H10-OADC medium, no growth after 2 weeks
[8] = set-up: method as in PMID 16032973; conditions: cited from earlier work
[9] = 50 µM inhibitor, 150 µM HLZ, 120 µM Ac-CoA, 24°C, mean ± S.D. of triplicate
[10] = 150 µM HLZ, 120 µM Ac-CoA, 24°C

T1 sequence (B2HIZ6 entry or part of it): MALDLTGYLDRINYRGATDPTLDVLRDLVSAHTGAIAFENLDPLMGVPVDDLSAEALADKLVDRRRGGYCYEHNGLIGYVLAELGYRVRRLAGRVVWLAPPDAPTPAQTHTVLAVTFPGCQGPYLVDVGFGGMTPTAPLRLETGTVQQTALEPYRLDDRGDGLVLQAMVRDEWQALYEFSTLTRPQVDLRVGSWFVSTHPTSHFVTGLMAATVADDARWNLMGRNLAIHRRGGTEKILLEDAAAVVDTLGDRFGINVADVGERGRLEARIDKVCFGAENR
T2 sequence (P9WJI5 whole entry): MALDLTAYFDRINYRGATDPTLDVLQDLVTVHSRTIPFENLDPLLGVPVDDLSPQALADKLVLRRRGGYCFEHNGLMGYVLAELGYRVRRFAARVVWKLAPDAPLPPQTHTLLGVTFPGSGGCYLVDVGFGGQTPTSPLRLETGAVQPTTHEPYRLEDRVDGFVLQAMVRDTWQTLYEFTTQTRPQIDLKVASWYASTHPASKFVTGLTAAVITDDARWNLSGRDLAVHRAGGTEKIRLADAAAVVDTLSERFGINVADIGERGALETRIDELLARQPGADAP

Row | SMILES | Δm of enzyme-inhibitor adduct (MMNAT) (MMNAT [1]) | Molar ratio (inhibitor/protein) (MMNAT) (MMNAT [1]) | inhibition at 50 µM (TBNAT [3]; [9]) [%] | IC50 (TBNAT [3]; [10]) [nM] | MMNAT kobs (MMNAT [4]; inhibitor at 11.9 µM) | inhibition at 50 µM (MMNAT [5]; [9]) [%] | IC50 (MMNAT [5]; [10]) [nM] | MIC (M. tuberculosis H37Rv) [µM] | MIC (M. bovis BCG) [µM] | TBNAT % Inhibition (TBNAT [3]; [9]) [%] | MMNAT % Inhibition (MMNAT [5]; [9]) [%] | MIC M. tuberculosis (M. tuberculosis H37Rv) [µM] | MIC M. bovis BCG (M. bovis BCG) [µM] | also measured
1 | C=CC(=O)c1ccccc1 [PVK, phenyl vinyl ketone, reference compound] | 132 Da | 1 |  |  |  |  |  |  |  |  |  |  |  | mass difference of enzyme adduct (TBNAT) (TBNAT [2]; ratio not stated): 132; inhibition of the NAT activity (NAT): 100%
2 | CN1CCC(O)(c2ccccc2)C(C(=O)c2ccccc2)C1 (centres unmarked) [compound 1, (4-hydroxy-1-methyl-4-phenylpiperidin-3-yl)(phenyl)methanone] | 132 Da and 132.6 Da | 1 | 101 ± 1 | 7700 ± 900 | 9±2 10^−3 min^−1 | 105 ± 1 | 1300 | 3.4 to 16.9 (≈ 1 to 4.99 µg/mL) | 21.3 to 42.3 (≈ 6.29 to 12.5 µg/mL) |  |  |  |  | Molar ratio (inhibitor/protein) (TBNAT) (TBNAT [2]; enzyme-to-inhibitor ratio 1∶15, proposed number of inhibition species bound per protein molecule): 1 and 2; minimum inhibitory concentration (MIC) against M. tuberculosis (M. tuberculosis; conversion of the µg/mL value): ~17 µM (≈ 5.02 µg/mL); minimum inhibitory concentration (MIC) against M. tuberculosis (M. tuberculosis; reported over 50 years ago): less than 5 µg/mL; restoration of enzyme activity by dialysis (TBNAT) (TBNAT [6]): completely ineffective in restoring the activity; restoration of enzyme activity by dialysis (MMNAT) (MMNAT [7]): completely ineffective in restoring the activity; inhibition of eukaryotic NAT (hamster NAT2) (hamster NAT2 (shNAT2)): did not show significant inhibition; inhibition of eukaryotic NAT (human NAT1) (human NAT1): did not show significant inhibition
3 | CN1CCC(O)(c2ccc(Cl)cc2)C(C(=O)c2ccc(Cl)cc2)C1 (centres unmarked) [compound 2] | 164 Da and 164.3 Da | 1 |  | 1600 ± 100 | 110±2 10^−3 min^−1 |  | 160 ± 10 |  |  | 98±1 | 103±2 | 2.7 to 13.7 | 17.3 to 34.3 | 
4 | O=C(c1ccccc1)C1CN(C2CCCCC2)CCC1(O)c1ccccc1 (centres unmarked) [compound 3] | 132 Da and 131.5 Da | 1 |  | 4400 ± 100 |  |  |  | 2.8 to 13.8 (≈ 1.02 to 5.02 µg/mL) | 17.3 to 34.4 (≈ 6.29 to 12.5 µg/mL) |  |  |  |  | inhibition at 50 µM (TBNAT [3]): 72 ± 60%; MMNAT kobs (MMNAT [4]; inhibitor at 5.9 µM): 573±18 10^−3 min^−1; inhibition at 50 µM (MMNAT [5]): 103 ± 1%
5 | CC1(C)CC(N2CCC(O)(c3ccccc3)C(C(=O)c3ccccc3)C2)CC(C)(C)N1 (centres unmarked) [compound 4] | 132 Da and 130.5 Da | 1 | 67 ± 4 | 1100 ± 300 | 586±115 10^−3 min^−1 | 100 ± 2 | 2700 ± 400 | 2.3 to 11.7 (≈ 0.967 to 4.92 µg/mL) | 14.8 to 29.3 (≈ 6.22 to 12.3 µg/mL) |  |  |  |  | 
6 | CN(CCC(=O)c1ccccc1)CCC(=O)c1ccccc1 [compound 5] | 132 Da and 129.7 Da | 1 |  | 1200 ± 100 | 34±2 10^−3 min^−1 |  | 140 ± 20 |  |  | 101±2 | 101±2 | 3.4 to 16.9 | 21.3 to 42.3 | toxicity compared to the cyclic piperidinol [8]: greater toxicity
